According to patent US20220362396A1, “AMINO-PYRAZINECARBOXAMIDE COMPOUNDS, CONJUGATES, AND USES THEREOF” (Silverback Therapeutics, Inc., priority 2018, published 2022):

Key:
[1] = test system: TGFβ/SMAD Signaling Pathway SBE reporter cell line; assay: TGFβ reporter assay, in vitro small molecule screening (luciferase); format: cell-based; details: TGFβ stimulation, luminescence
Procedure: TGFβ/SMAD Signaling Pathway SBE reporter cell line was obtained from BPS Bioscience. Cells were passed, expanded, and stored in liquid nitrogen as per the supplier's instructions with the exception that growth media is changed to DMEM-C with Geneticin (DMEM supplemented with 10% fetal bovine serum, 1×NEAA, 1 mM Pyruvate, 2 mM glutamine, 50 μg/mL penicillin, 50 U/mL streptomycin and 400 μg/mL of Geneticin). The assay media was MEM supplemented with 0.5% fetal bovine serum, 1×NEAA, 1 mM Pyruvate, 50 μg/mL penicillin and 50 U/mL streptomycin.
Test samples (at desired concentrations diluted in assay media) were added to a 96-well assay plate, 20 μL per well. Reporter cells were harvested from the tissue culture flasks by incubation in small quantity of PBS at 37° C. for two minutes after the media in the flask is removed and cells rinsed with PBS. Cells were counted and diluted in the assay media at approximately 0.5×10^6 cells/mL and then 80 μL/well of cells were added to the assay plate containing the 20 μL/well of test samples (or media only), and incubated for approximately 5-6 hours at 37° C. in a 5% CO2 humidified incubator. After that time, 15 μL of TGFβ diluted to 12 ng/mL in the assay media was added to the plate. Controls included TGFβ titration (from 50 to 0 ng/mL) without inhibitors, and media only (without cells, inhibitor or TGFβ). Plates were incubated at 37° C. in a 5% CO2 humidified incubator for 18 h. Luciferase substrate solution is subsequently added at 100 μL per well, incubated in the dark at room temperature for 15 min, and luminescence is measured using a luminometer. EC50 values and curve fits were obtained using Prism (GraphPad Software).

[2] = target: T1, TGFBR2 (Homo sapiens, UniProt P37173); assay: TGFBR2 RBC assay (enzyme inhibition assay, Reaction Biology Corp.); format: biochemical
T1 construct: purchased Reaction Biology Corp
T1 sequence (P37173 23-567): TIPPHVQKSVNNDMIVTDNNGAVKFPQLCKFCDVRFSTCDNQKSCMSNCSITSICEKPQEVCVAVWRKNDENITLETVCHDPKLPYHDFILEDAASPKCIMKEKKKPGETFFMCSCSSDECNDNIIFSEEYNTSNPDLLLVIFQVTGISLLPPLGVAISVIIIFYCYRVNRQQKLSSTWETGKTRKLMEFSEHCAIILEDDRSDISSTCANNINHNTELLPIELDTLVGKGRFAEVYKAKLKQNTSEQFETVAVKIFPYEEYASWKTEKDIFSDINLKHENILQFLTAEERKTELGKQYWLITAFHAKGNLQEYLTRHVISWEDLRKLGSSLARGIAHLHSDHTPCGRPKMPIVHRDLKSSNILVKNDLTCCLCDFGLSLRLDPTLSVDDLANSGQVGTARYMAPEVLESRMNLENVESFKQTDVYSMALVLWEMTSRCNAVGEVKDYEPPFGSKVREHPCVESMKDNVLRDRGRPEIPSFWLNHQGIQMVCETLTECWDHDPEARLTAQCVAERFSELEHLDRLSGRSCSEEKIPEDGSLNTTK
Procedure: Compounds of the disclosure were also assayed by Reaction Biology Corp. using the TGFBR2 RBC assay (enzyme inhibition assay). […] NT refers to not tested.

| SMILES | EC50 [1] [nM] | IC50 [2] [nM] |
| --- | --- | --- |
| CC(C)(C)OC(=O)N1CCN(Cc2ccc(-c3cnc(N)c(C(=O)Nc4cnccc4N4CCOCC4)n3)cc2)CC1 [Compound 89] | 50 to 100 | < 50 |
| Nc1ncc(-c2ccc(CC(=O)N3CCN(C(=O)OCc4ccccc4)CC3)cc2)nc1C(=O)Nc1cnccc1N1CCOCC1 [Compound 90] | 50 to 100 | < 50 |
| Nc1ncc(-c2ccc(CC(=O)NCCNC(=O)OCc3ccccc3)cc2)nc1C(=O)Nc1cnccc1N1CCOCC1 [Compound 94] | 100 to 1000 | < 50 |
| Nc1ncc(-c2ccc(CCNC(=O)OCc3ccccc3)cc2)nc1C(=O)Nc1cnccc1N1CC2(COC2)C1 [Compound 95] | > 1000 | > 1000 |
| COC1CN(c2ccncc2NC(=O)c2nc(-c3ccc(CCNC(=O)OCc4ccccc4)cc3)cnc2N)C1 [Compound 96] | > 1000 | > 1000 |
| COCCN(C)c1ccncc1NC(=O)c1nc(-c2ccc(CCNC(=O)OCc3ccccc3)cc2)cnc1N [Compound 101] | 100 to 1000 | 50 to 100 |
| COCCCN(C)c1ccncc1NC(=O)c1nc(-c2ccc(CCN)cc2)cnc1N [Compound 103] | 100 to 1000 | < 50 |
| C[C@H](NC(=O)OCC1c2ccccc2-c2ccccc21)C(=O)NCc1ccc(-c2cnc(N)c(C(=O)Nc3cnccc3N3CCOCC3)n2)cc1 [Compound 105] | 100 to 1000 | 100 to 1000 |
| C[C@H](N)C(=O)NCc1ccc(-c2cnc(N)c(C(=O)Nc3cnccc3N3CCOCC3)n2)cc1 [Compound 106] | 100 to 1000 | 50 to 100 |
| CC(C)[C@H](NC(=O)OC(C)(C)C)C(=O)N[C@@H](C)C(=O)NCc1ccc(-c2cnc(N)c(C(=O)Nc3cnccc3N3CCOCC3)n2)cc1 [Compound 107] | 100 to 1000 | < 50 |
| CC(C)[C@H](N)C(=O)N[C@@H](C)C(=O)NCc1ccc(-c2cnc(N)c(C(=O)Nc3cnccc3N3CCOCC3)n2)cc1 [Compound 108] | 50 to 100 | 50 to 100 |
| Nc1ncc(-c2ccc(CNC(=O)[C@@H]3CCCN3)cc2)nc1C(=O)Nc1cnccc1N1CCOCC1 [Compound 110] | 100 to 1000 | < 50 |
| CC(C)[C@H](NC(=O)OC(C)(C)C)C(=O)N1CCC[C@H]1C(=O)NCc1ccc(-c2cnc(N)c(C(=O)Nc3cnccc3N3CCOCC3)n2)cc1 [Compound 111] | 100 to 1000 | < 50 |
| CC(C)[C@H](N)C(=O)N1CCC[C@H]1C(=O)NCc1ccc(-c2cnc(N)c(C(=O)Nc3cnccc3N3CCOCC3)n2)cc1 [Compound 112] | 50 to 100 | < 50 |
| CN(CC#N)c1ccncc1NC(=O)c1nc(-c2ccc(CCNC(=O)OCc3ccccc3)cc2)cnc1N [Compound 113] | > 1000 | > 1000 |
| Nc1ncc(N2CCC3(CCNCC3)C2)nc1C(=O)Nc1cnccc1N1CCOCC1 [Compound 114] | > 1000 | > 1000 |
| NCCc1ccc(-c2cnc(N)c(C(=O)Nc3cnccc3N3CCOCC3)n2)nc1 [Compound 117] | > 1000 | 100 to 1000 |
| Nc1ncc(N2CCNCC2)nc1C(=O)Nc1cnccc1N1CCOCC1 [Compound 118] | > 1000 | > 1000 |
| Nc1ncc(-c2ccc(CCNC(=O)OCc3ccccc3)cc2)nc1C(=O)Nc1cnccc1-n1ccnn1 [Compound 120] | > 1000 | < 50 |
| Nc1ncc(-c2ccc(CCNC(=O)OCc3ccccc3)cc2)nc1C(=O)Nc1cnccc1-c1ccccc1 [Compound 121] | 100 to 1000 | < 50 |
| CC(C)(C)OC(=O)NC1CCN(c2cnc(N)c(C(=O)Nc3cnccc3N3CCOCC3)n2)CC1 [Compound 122] | > 1000 | > 1000 |
| Nc1ncc(-c2ccc(CCNC(=O)OCc3ccccc3)nc2)nc1C(=O)Nc1cnccc1N1CCOCC1 [Compound 124] | 100 to 1000 | 100 to 1000 |
| NCCc1ccc(-c2cnc(N)c(C(=O)Nc3cnccc3N3CCOCC3)n2)cn1 [Compound 125] | > 1000 | 100 to 1000 |
| Nc1ncc(-c2ccc(CCNC(=O)OCc3ccccc3)cc2)nc1C(=O)Nc1cnc2ccccc2c1N1CCOCC1 [Compound 126] | 100 to 1000 | > 1000 |
| NCCc1ccc(-c2cnc(N)c(C(=O)Nc3cnccc3-c3cccnc3)n2)cc1 [Compound 127] | 100 to 1000 | < 50 |
| Nc1ncc(-c2ccc(CCNC(=O)OCc3ccccc3)cc2)nc1C(=O)Nc1cnccc1-c1cccnc1 [Compound 128] | 100 to 1000 | < 50 |
| NCCc1ccc(-c2cnc(N)c(C(=O)Nc3cnccc3-c3ccncc3)n2)cc1 [Compound 129] | 100 to 1000 | 50 to 100 |
| NCCc1ccc(-c2cnc(N)c(C(=O)Nc3cnc4ccccc4c3N3CCOCC3)n2)cc1 [Compound 130] | > 1000 | > 1000 |
| Nc1ncc(-c2ccc(CCNC(=O)OCc3ccccc3)cc2)nc1C(=O)Nc1cnccc1-c1ccccn1 [Compound 133] | > 1000 | < 50 |
| NCCc1ccc(-c2cnc(N)c(C(=O)Nc3cnc4[nH]ccc4c3N3CCOCC3)n2)cc1 [Compound 134] | 100 to 1000 | < 50 |

The next lines start with the values.

| EC50 [1] [nM] | IC50 [2] [nM] | SMILES |
| --- | --- | --- |
| 100 to 1000 | < 50 | Nc1nc(-c2ccc(CCC(=O)N3CCN(C(=O)OCc4ccccc4)CC3)cc2)cnc1C(=O)Nc1cnccc1N1CCOCC1 [Compound 86] |
| 50 to 100 | < 50 | Nc1ncc(-c2ccc(CN3CCNCC3=O)cc2)nc1C(=O)Nc1cnccc1N1CCOCC1 [Compound 87] |
| 50 to 100 | < 50 | Nc1ncc(-c2ccc(CCC(=O)N3CCNCC3)cc2)nc1C(=O)Nc1cnccc1N1CCOCC1 [Compound 88] |
| 50 to 100 | 50 to 100 | Nc1ncc(-c2ccc(CN3CCNCC3)cc2)nc1C(=O)Nc1cnccc1N1CCOCC1 [Compound 91] |
| 100 to 1000 | < 50 | Nc1ncc(-c2ccc(CC(=O)N3CCNCC3)cc2)nc1C(=O)Nc1cnccc1N1CCOCC1 [Compound 92] |
| 100 to 1000 | 100 to 1000 | NCCc1ccc(-c2cnc(N)c(C(=O)Nc3cnccc3CN3CCCC3)n2)cc1 [Compound 93] |
| > 1000 | > 1000 | COCCCNc1ccncc1NC(=O)c1nc(-c2ccc(CCN)cc2)cnc1N [Compound 97] |
| > 1000 | > 1000 | COC1CN(c2ccncc2NC(=O)c2nc(-c3ccc(CCN)cc3)cnc2N)C1 [Compound 98] |
| 100 to 1000 | 100 to 1000 | COCCN(C)c1ccncc1NC(=O)c1nc(-c2ccc(CCN)cc2)cnc1N [Compound 102] |
| > 1000 | > 1000 | NCCc1ccc(-c2cnc(N)c(C(=O)Nc3cnccc3NCC(N)=O)n2)cc1 [Compound 104] |
| 100 to 1000 | < 50 | CC(C)(C)OC(=O)N1CCC[C@H]1C(=O)NCc1ccc(-c2cnc(N)c(C(=O)Nc3cnccc3N3CCOCC3)n2)cc1 [Compound 109] |
| > 1000 | > 1000 | CC(C)(C)OC(=O)N1CCN(c2cnc(N)c(C(=O)Nc3cnccc3N3CCOCC3)n2)CC1 [Compound 115] |
| 100 to 1000 | 100 to 1000 | Nc1ncc(-c2ccc(CCNC(=O)OCc3ccccc3)cn2)nc1C(=O)Nc1cnccc1N1CCOCC1 [Compound 116] |
| > 1000 | > 1000 | NCCc1ccc(-c2cnc(N)c(C(=O)Nc3c(N4CCOCC4)ccnc3N)n2)cc1 [Compound 131] |
| 100 to 1000 | < 50 | NCCc1ccc(-c2cnc(N)c(C(=O)Nc3cnccc3-c3ccccn3)n2)cc1 [Compound 132] |
